The values below come from patent publication US12559464B2, “Quinazolinone dione compounds and uses thereof” (Edgewise Therapeutics, Inc., priority 2023, dated 2026).

Assay [1] concerns myosin ATPase, Rabbit Psoas myofibrils. Briefly: Myofibril ATPase assay, rabbit psoas (skeletal) myofibrils. The assay is classed as biochemical. The settings on record: Rabbit Psoas Prep pCa 25 GEOM_MEAN; for Rabbit Psoas EC25 (Y75 value): concentration required to reduce myosin ATP-ase activity by 25%.
Assay [2] has as its system myosin ATPase, Porcine Atria myofibrils. In words: Myofibril ATPase assay, porcine atria myofibrils. It counts as biochemical. The conditions noted are these: concentration required to reduce myosin ATP-ase activity by 25%; Porcine Atria Prep pCa 25 GEOM_MEAN.
Assay [3] has as its target T1, myosin ATPase, Porcine Ventricle myofibrils (Sus scrofa, UniProt P79293).
T1 construct: Myofibrils from porcine cardiac muscle was isolated from the left ventricle of Yucatan minipigs; tissue Exemplar Genetics; host or cells: left ventricle of Yucatan minipigs, myofibrils
In words: Myofibril ATPase assay, porcine ventricle myofibrils. It counts as biochemical, porcine (Yucatan minipigs). The settings on record: concentration required to reduce myosin ATP-ase activity by 25%; Porcine Ventricle Prep pCa 25 GEOM_MEAN. In outline:
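Myofibrils from Yucatan minipig left ventricle; ADP production coupled via PK-LDH to NADH loss, read kinetically at 340 nm every 1.5–2 min for 75 min in PIPES/MgCl2 pH 7.0 buffer. Slopes normalized to vehicle and fit to 4-parameter logistic; values are concentrations giving 75% (inhibition) or 125% (activation) of vehicle activity.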

T1 sequence (P79293 whole entry): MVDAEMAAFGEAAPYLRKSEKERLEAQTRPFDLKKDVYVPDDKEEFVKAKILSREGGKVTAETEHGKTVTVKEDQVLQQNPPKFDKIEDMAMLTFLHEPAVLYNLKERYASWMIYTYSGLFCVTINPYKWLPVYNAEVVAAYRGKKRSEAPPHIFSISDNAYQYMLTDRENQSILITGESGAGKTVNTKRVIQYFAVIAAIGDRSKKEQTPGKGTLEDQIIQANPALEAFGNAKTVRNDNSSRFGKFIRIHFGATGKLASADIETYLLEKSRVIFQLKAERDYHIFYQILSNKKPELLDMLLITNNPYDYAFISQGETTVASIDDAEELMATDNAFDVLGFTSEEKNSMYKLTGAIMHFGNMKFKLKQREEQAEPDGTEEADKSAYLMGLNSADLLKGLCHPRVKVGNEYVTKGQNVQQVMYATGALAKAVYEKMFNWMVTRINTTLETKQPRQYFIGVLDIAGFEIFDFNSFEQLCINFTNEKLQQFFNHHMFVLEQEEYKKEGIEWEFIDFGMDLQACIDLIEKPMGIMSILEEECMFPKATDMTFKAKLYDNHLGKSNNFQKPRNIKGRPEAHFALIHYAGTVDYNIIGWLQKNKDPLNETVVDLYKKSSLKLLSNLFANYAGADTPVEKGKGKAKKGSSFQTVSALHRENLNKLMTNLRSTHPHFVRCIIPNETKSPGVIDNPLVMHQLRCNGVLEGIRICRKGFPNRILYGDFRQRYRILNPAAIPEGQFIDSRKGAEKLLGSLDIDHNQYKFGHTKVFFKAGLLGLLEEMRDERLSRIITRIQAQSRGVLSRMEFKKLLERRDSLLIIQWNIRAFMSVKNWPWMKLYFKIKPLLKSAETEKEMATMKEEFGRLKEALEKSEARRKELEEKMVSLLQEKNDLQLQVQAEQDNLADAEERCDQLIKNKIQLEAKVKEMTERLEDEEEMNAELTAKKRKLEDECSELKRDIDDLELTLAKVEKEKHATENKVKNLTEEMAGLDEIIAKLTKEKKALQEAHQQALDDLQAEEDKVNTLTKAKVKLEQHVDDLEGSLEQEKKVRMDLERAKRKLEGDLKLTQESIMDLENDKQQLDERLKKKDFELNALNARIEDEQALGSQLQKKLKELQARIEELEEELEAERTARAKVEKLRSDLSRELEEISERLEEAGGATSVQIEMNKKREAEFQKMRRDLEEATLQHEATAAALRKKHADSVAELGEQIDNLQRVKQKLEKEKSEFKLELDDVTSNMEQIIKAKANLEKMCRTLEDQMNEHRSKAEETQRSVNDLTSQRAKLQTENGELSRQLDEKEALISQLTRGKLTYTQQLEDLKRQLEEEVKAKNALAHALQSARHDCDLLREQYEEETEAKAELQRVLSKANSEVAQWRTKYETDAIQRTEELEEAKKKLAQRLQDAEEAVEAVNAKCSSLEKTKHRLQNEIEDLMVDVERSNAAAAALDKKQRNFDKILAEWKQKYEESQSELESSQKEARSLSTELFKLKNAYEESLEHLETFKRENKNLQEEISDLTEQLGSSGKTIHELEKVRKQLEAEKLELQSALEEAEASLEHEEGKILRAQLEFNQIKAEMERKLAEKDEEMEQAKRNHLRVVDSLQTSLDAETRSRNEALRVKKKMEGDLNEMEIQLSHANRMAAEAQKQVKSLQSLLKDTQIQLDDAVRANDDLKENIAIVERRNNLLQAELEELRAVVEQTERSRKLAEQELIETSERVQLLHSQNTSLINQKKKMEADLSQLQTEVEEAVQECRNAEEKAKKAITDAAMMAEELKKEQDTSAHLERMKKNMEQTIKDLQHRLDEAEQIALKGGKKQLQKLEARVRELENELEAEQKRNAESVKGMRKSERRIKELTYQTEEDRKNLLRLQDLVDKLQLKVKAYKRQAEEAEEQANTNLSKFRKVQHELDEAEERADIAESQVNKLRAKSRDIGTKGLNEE

For the compound `O=C(Cn1c(=O)[nH]c2ccccc2c1=O)N[C@@H]1CCCc2cc(F)cc(F)c21` (single isomer, unassigned) [Compound 57], the “Rabbit Psoas EC25 (Y75 value)” value in assay [1] was determined as 0.937 µM. The “Porcine Atria EC25 (Y75 value)” value in assay [2] turned out to be 1.067 µM. Further, in assay [3], the “Porcine Ventricle EC25 (Y75 value)” value turned out to be 25.71 µM.

As to `COc1ccc([C@@H](C)NC(=O)Cn2c(=O)[nH]c3ccccc3c2=O)cc1` (single isomer, unassigned) [Compound 528], the “Rabbit Psoas EC25 (Y75 value)” value in assay [1] was 100 µM. Besides, the “Porcine Atria EC25 (Y75 value)” value in assay [2] is 100 µM. Also, in assay [3], the “Porcine Ventricle EC25 (Y75 value)” value worked out at 100 µM.

Take `C[C@H](NC(=O)[C@H](Cc1ccccc1)n1c(=O)[nH]c2cccc(O)c2c1=O)c1ccc(F)cc1F` [Compound 33, (S)-N-((S)-1-(2,4-difluorophenyl)ethyl)-2-(5-hydroxy-2,4-dioxo-1,4-dihydroquinazolin-3(2H)-yl)-3-phenylpropanamide]: in assay [1] (concentration required to increase myosin ATP-ase activity by 25%), the “Rabbit Psoas Y125 value (marked #)” value is 51.2^# μM. The “Porcine Atria EC25 (Y75 value)” value in assay [2] turned out to be 100 µM. Also, the Porcine Ventricle EC25 (Y75 value) in assay [3] stood at 100 µM.

Take `CC[C@H](NC(=O)Cn1c(=O)[nH]c2ccccc2c1=O)c1ccc(F)cc1F` (single isomer, unassigned) [Compound 49]: in assay [1], the “Rabbit Psoas EC25 (Y75 value)” value is 100 µM. For the same compound, the “Porcine Atria EC25 (Y75 value)” value in assay [2] came to 100 µM. The “Porcine Ventricle EC25 (Y75 value)” value in assay [3] worked out at 100 µM.

For the compound `C[C@H](NC(=O)Cn1c(=O)[nH]c2cccc(F)c2c1=O)c1ccc(F)cc1F` [Compound 154, (S)-N-(1-(2,4-difluorophenyl)ethyl)-2-(5-fluoro-2,4-dioxo-1,4-dihydroquinazolin-3(2H)-yl)acetamide], the “Rabbit Psoas EC25 (Y75 value)” value in assay [1] turned out to be 0.11 µM. Besides, the “Porcine Atria EC25 (Y75 value)” value in assay [2] stood at 0.1312 µM. Moreover, the “Porcine Ventricle EC25 (Y75 value)” value in assay [3] turned out to be 1.15 µM.

As for `C[C@H](NC(=O)Cn1c(=O)[nH]c2ccc(C#N)cc2c1=O)c1ncc(C#N)cc1F` (single isomer, unassigned) [Compound 16], the “Rabbit Psoas EC25 (Y75 value)” value in assay [1] worked out at 5.743 µM. In addition, the “Porcine Atria EC25 (Y75 value)” value in assay [2] came out at 0.57 µM. Also, the “Porcine Ventricle EC25 (Y75 value)” value in assay [3] came to 14.04 µM.

As to `C[C@H](NC(=O)Cn1c(=O)[nH]c2c(F)cccc2c1=O)c1ccc(F)cc1F` [Compound 406, (S)-N-(1-(2,4-difluorophenyl)ethyl)-2-(8-fluoro-2,4-dioxo-1,4-dihydroquinazolin-3(2H)-yl)acetamide], in assay [1], the “Rabbit Psoas EC25 (Y75 value)” value came out at 12.297 µM. Besides, the “Porcine Atria EC25 (Y75 value)” value in assay [2] was 63.31 µM. Also, in assay [3], the “Porcine Ventricle EC25 (Y75 value)” value worked out at 100 µM.

Consider `O=C(Cn1c(=O)[nH]c2ccccc2c1=O)NC1CNC(=O)c2cc(F)cc(F)c21` (stereo not drawn) [Compound 46, N-(5,7-difluoro-1-oxo-1,2,3,4-tetrahydroisoquinolin-4-yl)-2-(2,4-dioxo-1,4-dihydroquinazolin-3(2H)-yl)acetamide], for which, in assay [1], the “Rabbit Psoas EC25 (Y75 value)” value came to 100 µM. Moreover, in assay [2], the “Porcine Atria EC25 (Y75 value)” value is 100 µM. For the same compound, the “Porcine Ventricle EC25 (Y75 value)” value in assay [3] was 100 µM.

With `C[C@@H](NC(=O)Cn1c(=O)[nH]c2ccccc2c1=O)c1ccccc1` (single isomer, unassigned) [Compound 533], the “Rabbit Psoas EC25 (Y75 value)” value in assay [1] stood at 100 µM. Moreover, the “Porcine Atria EC25 (Y75 value)” value in assay [2] amounted to 100 µM. In addition, the “Porcine Ventricle EC25 (Y75 value)” value in assay [3] stood at 100 µM.

In the case of `Cc1cc(F)ccc1[C@H](C)NC(=O)Cn1c(=O)[nH]c2ccccc2c1=O` (single isomer, unassigned) [Compound 503], in assay [1], the “Rabbit Psoas EC25 (Y75 value)” value was determined as 0.36 µM. Moreover, the “Porcine Atria EC25 (Y75 value)” value in assay [2] was 0.1046 µM. Besides, the “Porcine Ventricle EC25 (Y75 value)” value in assay [3] was 1.526 µM.

Regarding `COc1ccc(F)cc1C(C)NC(=O)Cn1c(=O)[nH]c2ccccc2c1=O` (stereo not drawn) [Compound 520, 2-(2,4-dioxo-1,4-dihydroquinazolin-3(2H)-yl)-N-(1-(5-fluoro-2-methoxyphenyl)ethyl)acetamide], the “Rabbit Psoas EC25 (Y75 value)” value in assay [1] is 100 µM. Besides, in assay [2], the “Porcine Atria EC25 (Y75 value)” value was found to be 100 µM. Besides, the “Porcine Ventricle EC25 (Y75 value)” value in assay [3] was found to be 100 µM.

On to `C[C@H](NC(=O)Cn1c(=O)[nH]c2ccc(F)c(F)c2c1=O)c1ccc(C#N)nn1` (single isomer, unassigned) [Compound 4], for which the “Rabbit Psoas EC25 (Y75 value)” value in assay [1] amounted to 0.204 µM. The “Porcine Atria EC25 (Y75 value)” value in assay [2] was 0.178 µM. In addition, in assay [3], the “Porcine Ventricle EC25 (Y75 value)” value is 4.869 µM.

`C[C@H](NC(=O)[C@@H](C)n1c(=O)[nH]c2cccc(O)c2c1=O)c1ccc(F)cc1F` (single isomer, unassigned) [Compound 36]: the “Rabbit Psoas EC25 (Y75 value)” value in assay [1] was 0.104 µM. In addition, the “Porcine Atria EC25 (Y75 value)” value in assay [2] worked out at 0.0803 µM. Moreover, the “Porcine Ventricle EC25 (Y75 value)” value in assay [3] stood at 1.35 µM.

Take `C[C@H](NC(=O)[C@@H](C)n1c(=O)[nH]c2ccc(F)cc2c1=O)c1ccc(F)cc1F` [Compound 41, (R)-N-((S)-1-(2,4-difluorophenyl)ethyl)-2-(6-fluoro-2,4-dioxo-1,4-dihydroquinazolin-3(2H)-yl)propanamide]: in assay [1], the “Rabbit Psoas EC25 (Y75 value)” value worked out at 0.828 µM. The “Porcine Atria EC25 (Y75 value)” value in assay [2] amounted to 1.375 µM. In assay [3], the “Porcine Ventricle EC25 (Y75 value)” value worked out at 28.36 µM.

Take `C[C@H](NC(=O)[C@H](C)n1c(=O)[nH]c2ccccc2c1=O)c1ccc(F)cc1F` (single isomer, unassigned) [Compound 102]: the “Rabbit Psoas EC25 (Y75 value)” value in assay [1] came out at 0.761 µM. For the same compound, the “Porcine Atria EC25 (Y75 value)” value in assay [2] came out at 1.175 µM. In addition, the “Porcine Ventricle EC25 (Y75 value)” value in assay [3] was 99.13 µM.

Regarding `C[C@H](NC(=O)Cn1c(=O)[nH]c2ccccc2c1=O)c1ccc(O)nc1` (single isomer, unassigned) [Compound 98], the “Rabbit Psoas EC25 (Y75 value)” value in assay [1] was 100 µM. In addition, in assay [2], the “Porcine Atria EC25 (Y75 value)” value is 100 µM. Moreover, the “Porcine Ventricle EC25 (Y75 value)” value in assay [3] was 100 µM.

Regarding `CC(C)C(C(=O)N[C@@H](C)c1ccc(F)cc1F)n1c(=O)[nH]c2ccccc2c1=O` (single isomer, unassigned) [Compound 513], the “Rabbit Psoas EC25 (Y75 value)” value in assay [1] turned out to be 100 µM. Also, the “Porcine Atria EC25 (Y75 value)” value in assay [2] was 100 µM. The “Porcine Ventricle EC25 (Y75 value)” value in assay [3] stood at 100 µM.

As for `C[C@H](NC(=O)[C@@H](CC1CC1)n1c(=O)[nH]c2ccccc2c1=O)c1ccc(F)cc1F` (single isomer, unassigned) [Compound 502], the “Rabbit Psoas EC25 (Y75 value)” value in assay [1] amounted to 13.814 µM. Besides, in assay [2], the “Porcine Atria EC25 (Y75 value)” value is 43.27 µM. Besides, the “Porcine Ventricle EC25 (Y75 value)” value in assay [3] amounted to 100 µM.

On to `C[C@H](NC(=O)C(c1ccccc1)n1c(=O)[nH]c2ccccc2c1=O)c1ccc(F)cc1F` (single isomer, unassigned) [Compound 510], for which the “Rabbit Psoas EC25 (Y75 value)” value in assay [1] amounted to 100 µM. Moreover, the “Porcine Atria EC25 (Y75 value)” value in assay [2] was determined as 100 µM. Further, in assay [3], the “Porcine Ventricle EC25 (Y75 value)” value amounted to 100 µM.

For the compound `CC(NC(=O)Cn1c(=O)[nH]c2ccccc2c1=O)c1cnccn1` (stereo not drawn) [Compound 215, 2-(2,4-dioxo-1,4-dihydroquinazolin-3(2H)-yl)-N-(1-(pyrazin-2-yl)ethyl)acetamide], the “Rabbit Psoas EC25 (Y75 value)” value in assay [1] amounted to 100 µM. In addition, the “Porcine Atria EC25 (Y75 value)” value in assay [2] is 23.9 µM. For the same compound, the “Porcine Ventricle EC25 (Y75 value)” value in assay [3] was determined as 45.3 µM.

With `O=C(Cn1c(=O)[nH]c2ccccc2c1=O)N[C@H]1CCc2cc(F)cc(F)c21` (single isomer, unassigned) [Compound 48], the “Rabbit Psoas EC25 (Y75 value)” value in assay [1] came out at 0.156 µM. In addition, the “Porcine Atria EC25 (Y75 value)” value in assay [2] stood at 0.4184 µM. Further, the “Porcine Ventricle EC25 (Y75 value)” value in assay [3] worked out at 7.872 µM.
